Results on 13 compounds are retold here after paper PMC5608908, “Novel scaffolds for inhibition of Cruzipain identified from high-throughput screening of anti-kinetoplastid chemical boxes” (Scientific Reports, 2017).

In assay [1] the target is T1, Cruzipain (Trypanosoma cruzi, UniProt P25779).
T1 construct: Cruzipain (CZP) was purified to homogeneity from epimastigotes of the Tul 2 strain; from tissue; host or cells: Trypanosoma cruzi epimastigotes, Tul 2 strain (natural enzyme, not recombinant)
T1 sequence (P25779 123-467): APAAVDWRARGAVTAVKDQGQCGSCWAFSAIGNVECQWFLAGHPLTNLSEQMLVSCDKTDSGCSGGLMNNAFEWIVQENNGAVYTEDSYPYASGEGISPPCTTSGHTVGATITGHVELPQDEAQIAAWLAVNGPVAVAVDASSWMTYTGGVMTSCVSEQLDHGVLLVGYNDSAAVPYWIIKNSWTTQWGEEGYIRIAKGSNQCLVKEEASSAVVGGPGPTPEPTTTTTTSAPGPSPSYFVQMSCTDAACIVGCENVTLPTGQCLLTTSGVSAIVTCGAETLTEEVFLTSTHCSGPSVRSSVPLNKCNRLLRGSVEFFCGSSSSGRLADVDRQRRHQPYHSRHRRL
Format: biochemical. To be noted: for Hit call by statistically robust cutoff (µC+ − 3 × SDC+): compound 25 µM, singlet. How it is done: (§1) Assay was performed in a solid black 384-well plate (final reaction volume ~80 μL) and the release of 7-amino-4-methylcoumarin was monitored continuously at 30 °C with a Beckman Coulter DTX 880 Multimode Reader (Radnor, Pennsylvania, USA) using standard 340 nm excitation and 450 nm emission filter set. Final substrate concentration was set to 2 μM to match previously reported conditions[31] and being close to the KM value for this substrate. Optimal Cruzipain assay concentration (5.8 nM) was selected from 2-fold serial dilutions to match three criteria: (i) being linearly proportional to V0, (ii) display robust signal evolution at 2 μM substrate concentration and (iii) display linear kinetics for enough time to perform several reading cycles (at least 10 cycles, minimum time between cycles: 264 sec) through the 384-wells. In all cases, E-64(final concentration 125 nM) was used as positive inhibition control.
To perform the high-throughput screening, 1 μL of each compound (2 mM in DMSO), E-64 (10 μM in DMSO) or DMSO (negative controls) were dispensed into 384-well Corning black solid-bottom assay plates. Then, 40 μL of 100 mM NaAc, 5 mM DTT, 0.01% Triton X-100 pH 5.5 containing Cruzipain (11,6 nM) were added to each well, plates were homogenized (30 seg, orbital, medium intensity) and each well subjected to a single autofluorescence read (exc/ems = 340/450 nm). Plates were incubated in darkness for 15 min at 30 °C and then 40 μL of Z-FR-AMC (4 μM) in assay buffer were added to each well to start the reaction. After homogenization (30 seg, orbital, medium intensity), the fluorescence of AMC (exc/ems = 340/450 nm) was acquired kinetically for each well (12 read cycles, one cycle every 300 seconds).
Raw screening measurements were used to determine the slope (dF/dt) of progression curves by linear regression for control and compound wells. In the case of control-dependent hit selection criterium, percent inhibition (%Inh) was calculated for each compound according to Eq. 6:6 %Inh=100⋅[1−(dF/dt^WELL−µ^C−)/(µ^C+−µ^C−)] where dF/dt^WELL represents the slope of each compound well and µ^C+ and µ^C− the average of Cruzipain (no-inhibition) and substrate (no-enzyme) controls, respectively.

In assay [2] the target is T1, Cruzipain. Format: biochemical. Particulars: E-64 1 nM, Cruzipain 5.8 nM, 24 replicates. How it is done: as §1, with “In all cases, E-64(final concentration 125 nM) was used as positive inhibition control.” left out
A further assay deals with T. cruzi. On the set-up: method as in PMID 9705954, PMID 17698625, PMID 16304193. To be noted: immunocompetent and immunodeficient mice, dogs; cited from earlier work.
The target in assay [3] is T1, Cruzipain. Format: biochemical. To be noted: for Behavior of dose-response curve: compound 62.5 µM – 7.5 pM; for Ki (tight-binding, suggested from IC50 in the order of the enzyme concentration): estimate from IC50 values. How it is done:
as §1
To avoid any positional and/or association bias, we randomly defined the row position for each compound. One μL of compounds stock (10 mM in DMSO) and E-64 (10 mM in DMSO) were added to the first well of column 1, followed by addition of 40 μL of 100 mM NaAc, 5 mM DTT, 0.01% Triton X-100 pH 5.5 buffer. After addition of 20 μL of the same buffer to subsequent wells of the plate, 22 serial 2-fold dilutions were made horizontally. The last two positions of every row were used, alternatively, for C^+ and C^− controls to reduce any positional and/or association bias. Then, 20 μL of activity buffer containing Cruzipain ([…]) were added to each well, except for those corresponding to C^−; completed with 20 μL of activity buffer. After homogenization, 15 minutes of incubation at 30 °C and autofluorescence measurement, 40 μL of a 4 μM solution of Z-FR-AMC substrate (in activity buffer) was added to the previous mix. Data collection and processing were performed exactly as described above. Percentage of Cruzipain residual activity was calculated for each condition according to Eq. 7:7 %Res.Act.^CRUZIPAIN=100⋅[(dF/dt^WELL−µ^C−)/(µ^C+−µ^C−)] where dF/dt^WELL represents the slope of each compound well and µ^C+ and µ^C− the average of Cruzipain (no-inhibition) and substrate (no-enzyme) controls, respectively. The IC50 and Hill slope parameters for each compound were estimated by fitting the four-parameter Hill equation to experimental data from dose-response curves using the GraphPad Prism program (version 5.03).

Assay [4] concerns the target T1, Cruzipain. In words: biochemical. Particulars: Cruzipain 11.6 nM; for IC50: Z-FR-AMC 2 μM, pH 5.5, 30 °C, 15 min preincubation, four-parameter Hill fit; for Hill Slope: four-parameter Hill fit of dose-response curve.
Assay [5] relates to T. cruzi intracellular amastigotes. Set-up: method as in PMID 25740547. Particulars: T. cruzi intracellular amastigotes vs T. brucei axenic bloodstream forms; cited from earlier work.

`CC(C)C[C@H](NC(=O)[C@H]1O[C@@H]1C(=O)O)C(=O)NCCCCN=C(N)N` (relative stereo) [Compound E-64, trans-epoxysuccinyl-L-leucylamido-(4-guanidino)butane, reference compound]: on Cruzipain [1] (E-64 final concentration 125 nM, Cruzipain control 210.84), the “E-64 Control activity slope, Mean, Plate 2” value was determined as 6.36 RFU/sec. The “E-64 Control activity slope, Mean, Plate 1” value on Cruzipain [1] (E-64 final concentration 125 nM, Cruzipain control 893.31) worked out at 19.30 RFU/sec. For the same compound, the “average inhibition with respect to Cruzipain control” value at Cruzipain [2] is 9.87%.

As to `CN1CCN(C(=O)N[C@@H](Cc2ccccc2)C(=O)N[C@H](/C=C/S(=O)(=O)c2ccccc2)CCc2ccccc2)CC1` [Compound K777, N-[(2 S)-1-[[(E,3 S)-1-(benzenesulfonyl)-5-phenylpent-1-en-3-yl]amino]-1-oxo-3-phenylpropan-2-yl]-4-methylpiperazine-1-carboxamide], in the assay on T. cruzi, the “Efficacy in preclinical models of T. cruzi infection” value is recorded as “efficacious”.

On to `Cl.Cl.O=c1ccc2ccc(F)c3c2n1C[C@H]3CN1CCN(CC(O)c2cc3c(cn2)OCS3)CC1` (stereo partly shown) [TCMDC-143158], for which the “Hit call by statistically robust cutoff (µC+ − 3 × SDC+)” value (“Hit call by statistically robust cutoff” below) on Cruzipain [1] is recorded as “positive hits”.

In the case of `CC1(Oc2cncc(Cl)c2)CCN(Cc2cc3ccccc3[nH]2)C1` (stereo not shown) [TCMDC-143162], the “Hit call by statistically robust cutoff” value at Cruzipain [1] is on record as “positive hits”.

As to `NCC(Cc1ccccc1)NC(=O)c1cnc(-c2c[nH]c3ncccc23)s1.O=C(O)C(F)(F)F.O=C(O)C(F)(F)F` (stereo not shown) [TCMDC-143176], on Cruzipain [3], the “Behavior of dose-response curve” value was “activation phenotype at highest concentrations”.

`COc1ccc(OC)c(S(=O)(=O)N(Cc2c(F)cccc2F)C2CCN(C#N)C2)c1` (stereo not shown) [TCMDC-143370]: the “IC50 range against Cruzipain, in words” value on Cruzipain [3] is “low micromolar range”. At Cruzipain [4], it took 5650 µM to reach half-maximal inhibition (IC50) and the “Hill Slope” value is on record as −0,7542.

As to `COc1ccc2ncc(=O)n(CCN3CC[C@H](NCc4ncc(Cl)c5[nH]ncc45)[C@H](O)C3)c2n1` [TCMDC-143373], at Cruzipain [3], the “Behavior of dose-response curve” value is on record as “erratic behavior”. The “Hit call by statistically robust cutoff” value on Cruzipain [1] is recorded as “positive hits”.

Take `COc1cc(OC)cc(C(=O)N[C@@H](CC(C)C)C(=O)NC2(C#N)CC2)c1` [TCMDC-143390]: on Cruzipain [3], the “IC50 range against Cruzipain, in words” value was “submicromolar range” and the “Ki (tight-binding, suggested from IC50 in the order of the enzyme concentration)” value is listed as 1 to 4 × 10^−8 M. At Cruzipain [4], it took 0.0678 µM to reach half-maximal inhibition (IC50) and the “Hill Slope” value is listed as −0,9354.

In the case of `CC(C)C[C@H](NC(=O)c1ccc(-c2ccccc2)o1)C(=O)NC1(C#N)CC1` [TCMDC-143393], at Cruzipain [3], the “IC50 range against Cruzipain, in words” value was “submicromolar range” and the “Ki (tight-binding, suggested from IC50 in the order of the enzyme concentration)” value is on record as 1 to 4 × 10^−8 M. In addition, at Cruzipain [4], it took 0.0303 µM to reach half-maximal inhibition (IC50) and the “Hill Slope” value is given as −0,957. Moreover, the “IC50 against T. cruzi relative to T. brucei” value in assay [5] is “between one and two orders of magnitude higher”.

As to `COc1cc(F)c2ncc(F)c(CCN3CC[C@H](NCc4cc5c(cn4)OCS5)[C@@H](O)C3)c2c1` [TCMDC-143510], on Cruzipain [4], the IC50 (in general, the concentration that gives 50% inhibition) amounted to 16.1 µM and the “Hill Slope” value is recorded as −0,7998.

Take `COc1ccc2ncc(Cl)c(CCN3CCC(NCc4cc5c(cn4)OCS5)C(O)C3)c2n1` (stereo not shown) [TCMDC-143513]: on Cruzipain [4], half-maximal inhibition (IC50) required 14.9 µM and the “Hill Slope” value is given as −0,8108.

For the compound `COc1ccc2nccc([C@H](O)CN3CC[C@H](NC(=O)c4ccc(Br)cc4)[C@@H](O)C3)c2n1` [TCMDC-143527], on Cruzipain [1], the “Hit call by statistically robust cutoff” value is “positive hits”.

As for `NC(N)=Nc1nc(-c2ccc(NC(N)=NCCN3CCCC3)cc2)cs1` [TCMDC-143640], at Cruzipain [4], half-maximal inhibition (IC50) was put at 3390 µM and the “Hill Slope” value is −0,9825.
